This note sets out measurements from patent US20220047701A1, “COMBINATION OF HER2/NEU ANTIBODY WITH HEME FOR TREATING CANCER” (INSERM (Institut National de la Santé et de la Recherche …, priority 2018, published 2022).

A word on the pKd: it is −log10 of the Kd, conventionally taken in molar units. Low values mean a large Kd, high ones a small Kd.

For data set [1], the system named is SKBR3 cells. In words: Direct and complement-mediated cytotoxicity (WST-1), SKBR3. The format is cell-based, human. Conditions: identical concentrations as introduced by heme-bound Trastuzumab. Here is the method:
(§1) Cells were treated on 96-wells plates with flat bottom and low evaporation lid (Coster, USA). MDA-MB-231 or SKBR3 breast cancer cells were plated and left for 2 hours to adhere. […] The Ab was diluted to a final concentration of 3.7 μg/ml. As a source of complement, baby rabbit complement (AbD Serotec) was added to obtain a dilution of ×5 (MDA-MB-231 cells) or ×8 (SKBR3 cells). As control, heat inactivated fetal calf serum was added at the same ratios. To evaluate the amount of alive cells, WST-1 dye (Roche) was added after 5 days of incubation at 37° C. The absorbance at 450 nm and 690 nm was read after 2 hours incubation at 37° C.
Background: Formazan colour is commonly taken as a measure of viable cells.

Data set [2] concerns Trastuzumab. Description: Circular dichroism of Trastuzumab exposed to heme. Particulars: Ab 1 μM, heme 10 μM. As to the method:
The CD spectra measurements were performed with JASCO-J710 Spectrometer. Data pitch and slit were both set to 1 nm. The data were recorded at scan speed on 10 nm/min in the range of 260-185 nm. […] The Ab was exposed or not to 10 μM concentration of heme. All spectra were acquired at 20° C. in quartz cuvettes with 1 mm optical path.

Data set [3] has as its target Trastuzumab. In words: SPR binding kinetics and thermodynamics of heme to immobilized Trastuzumab. Here is the method:
Trastuzumab was immobilized on a CMS sensor chip (Biacore) by using amine-coupling kit provided by the manufacturer. The Ab was diluted in 5 mM maleic acid (pH 4) to a final concentration of 10 μg/ml. The achieved immobilization level was 6300 resonance unit (RU). All measurements were performed using HBS-EP (0.01M HEPES, pH 7.4 containing 0.15 M NaCl, 3 mM EDTA and 0.05% Tween 20). Initially, a stock solution of heme (hemin, Frontiers Scientific, Logan, Utah) at 1 mM was prepared in 0.05 N NaOH. Heme was further diluted to 10 μM in the running buffer and 8 two-fold dilutions (10-0.078 μM) were injected at flow rate of 30 μl/min. The association and dissociation phases of the interaction were monitored for 5 min and 10 min, respectively. […]
Heme was diluted at 10 μM in HBS-EP and injected at flow rate of 30 ul/min. The association and dissociation phases of the interaction were monitored for 5 min and 10 min, respectively. […]
The kinetic rate constants obtained at different temperatures were used to build Arrhenius plots. The values of slopes of the Arrhenius plots were calculated by using a linear regression analysis of the experimental kinetic data and substituted in Equations 1-4,
Where the “slope”=∂1n(ka/d/∂(1/T), and where Ea is the activation energy. The enthalpy, entropy, and Gibbs free energy changes characterizing the association phase were calculated using Equations 2-4, […]

In data set [4] the test system is MDA-MB-231 cells. In words: Direct and complement-mediated cytotoxicity (WST-1), MDA-MB-231. Particulars: identical concentrations as introduced by heme-bound Trastuzumab. The format is cell-based, human. Here is the method: as §1
Data set [5] concerns Trastuzumab. Description: Quenching of intrinsic tryptophan fluorescence of Trastuzumab by heme. The format is binding. Here is the method:
The Ab was diluted to 0.1 μM in PBS and titrated with increasing concentrations (0, 0.01, 0.025, 0.05, 0.1, 0.2, 0.4, 0.8, 1.6 and 3.2 μM) of heme, added as aliquots from a stock solution. A wavelength of 295 nm was used to selectively excite tryptophan residues. Excitation and emission slits were both adjusted to 10 nm. […] Quartz cuvette with 1 cm optical path was used in the experiment. All measurements were performed at room temperature.

Data set [6] relates to Trastuzumab. In words: Induction of polyreactivity of Trastuzumab by heme derivatives. The format is binding. Particulars: for rank of potential to induce polyreactivity: reactivity towards bacterial antigens; for induction of polyreactivity of Trastuzumab: exposure of Trastuzumab to the compound.
Data set [7] concerns Trastuzumab. Description: Absorbance spectroscopy of heme with Trastuzumab. The format is binding. Here is the method: Absorbance spectra were measured by using UNICAM Helios b, UV-vis spectrophotometer. […] After addition of each heme aliquot and incubation for 2 min in dark, the absorbance spectra in the wavelength range 350-700 nm were recorded. The spectra were scanned at rate of 300 nm/min. All measurements were performed at room temperature, in quartz cuvettes with optical path of 1 cm.

The subject of data set [8] is more than 9,000 human proteins. In words: Protein microarray (ProtoArray) reactivity. The format is binding.
Data set [9] deals with Trastuzumab. Description: Size-exclusion chromatography, induction of Trastuzumab oligomers by heme or heme analogues. The format is physicochemical. In general terms: Size exclusion chromatography separates by hydrodynamic size, large species first.
The subject of data set [10] is immobilized Trastuzumab. In words: ELISA induction of antibody homophilicity by heme. The format is binding. Here is the method: The plates were blocked with PBS 0.25% containing Tween 20 for 1 hour. […] IgG was then diluted two times in PBS-T before incubation on plates for 2 h at room temperature. Following extensive washing, the plates were incubated for 30 min with streptavidin-HRP (Southern Biotech).
IgG was then diluted ten times in PBS-T before incubation on the plates for 2 h at room temperature.
Background: ELISA stands for enzyme-linked immunosorbent assay.

pKd: −log10 of the molar value.

Turning to iron protoporphyrin IX [heme], the “cell proliferation, heme alone” value in data set [1] and in data set [4] was “no negative impact on the cell proliferation” each time. In addition, the “change of circular dichroism spectra” value in data set [2] is “Considerable changes of the circular dichroism ellipticity curves”. In addition, the pKd in data set [3] (SPR, heme to immobilized Trastuzumab) is 7.00. In addition, the “portion of the Ab binding heme” value in data set [3] (immobilized Fab fragments, Fc fragments, heme 10 μM) is given as “preferential binding to the immobilized Fab portion”. Moreover, the “quenching of tryptophan fluorescence” value in data set [5] is “concentration-dependent decrease in the fluorescence signal”. Further, in [6], the “rank of potential to induce polyreactivity” value is listed as “lowest potential”. For the same compound, in data set [7], the “change in absorbance spectrum” value was “increased absorbance intensity of heme in high and low energy regions of the spectrum”. The “binding to human proteins” value in data set [8] is recorded as “able to bind to numerous human proteins, but to a lower extent”.
For `CCC1=C(C)C2=NC1=Cc1c(C)c(CC)c3[n]1[Fe][n]1c(c(C)c(CCC(=O)O)c1=CC1=NC(=C3)C(C)=C1CCC(=O)O)=C2` [Fe (III) mesoporphyrin IX], in [6], the “induction of polyreactivity of Trastuzumab” value is listed as “appearance of novel antigen-binding specificities”. The “induction of oligomerization / self-association of Trastuzumab” value in [9] is recorded as “able to induce oligomerization of Trastuzumab”.
Consider `CC1=C(CCC(=O)O)c2cc3[n-]c(cc4nc(cc5[n-]c(cc1n2)c(CCC(=O)O)c5C)C(CCC(=O)O)=C4C)c(CCC(=O)O)c3C.[Fe+3]` [Fe (III) coproporphyrin I], for which the “induction of polyreactivity of Trastuzumab” value in [6] is on record as “appearance of novel antigen-binding specificities”.
On to `CC1=Cc2cc3[n-]c(cc4nc(cc5[n-]c(cc1n2)c(C)c5CCC(=O)O)C(CCC(=O)O)=C4C)cc3C.[Fe]` [Fe (III) deuteroporphyrin IX], for which, in data set [6], the “induction of polyreactivity of Trastuzumab” value was “appearance of novel antigen-binding specificities” and the “rank of potential to induce polyreactivity” value was “most potent inducer of polyreactivity”.
Regarding `C=CC1=C(C)c2cc3[n-]c(cc4[n-]c(cc5nc(cc1n2)C(C)=C5C=C)c(C)c4CCC(=O)O)c(CCC(=O)O)c3C.[Zn+2]` [ZnPP, Zn (II) protoporphyrin IX, reference compound], the “induction of oligomerization / self-association of Trastuzumab” value in data set [9] is given as “failed to induced antibody homophilicity or oligomerization”. For the same compound, the “induction of antibody homophilicity by heme analog” value in data set [10] is given as “failed to induced antibody homophilicity or oligomerization”.
